In patent US20060223837A1 (priority 2005, published 2006):

Columns and labels:
[1] = target: T1, human VR1 (Homo sapiens, UniProt Q8NER1); assay: Human VR1 [3H]RTX binding assay; settings: [3H]RTX binding, HEK293 membranes
T1 construct: expressed in transfected cells; host or cells: HEK293
Outline: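 Membranes from human VR1-transfected HEK293 cells (~120 μg protein/ml) incubated with [3H]RTX in HEPES pH 7.4 with 0.25 mg/mL BSA, 37 C, 60 min. Bound counts by scintillation after α-acid glycoprotein and centrifugation; nonspecific defined with 200 nM unlabelled RTX. Ki from duplicate means.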

[2] = target: T1, human VR1; assay: Human VR1 functional assay (FLIPR intracellular Ca2+); type: cell-based; settings: for IC50: antagonism of capsaicin-induced Ca2+ increase, read-out: h IC50; for inhibition at 1 µM: read-out: h % I (1 μM); for inhibition at 5 µM: read-out: h % I (5 μM)
Outline: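 HEK293 cells expressing human VR1, loaded with Calcium 3 dye, were exposed to test compounds for 5 min while FLIPR recorded intracellular Ca2+, then challenged with capsaicin at ~80% maximal response ([…]). EC50 or IC50 came from dose-response curves on quadruplicate-well means.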

[3] = inhibition of capsaicin response
[4] = inhibition of capsaicin response, 5 μM

T1 sequence (Q8NER1 whole entry): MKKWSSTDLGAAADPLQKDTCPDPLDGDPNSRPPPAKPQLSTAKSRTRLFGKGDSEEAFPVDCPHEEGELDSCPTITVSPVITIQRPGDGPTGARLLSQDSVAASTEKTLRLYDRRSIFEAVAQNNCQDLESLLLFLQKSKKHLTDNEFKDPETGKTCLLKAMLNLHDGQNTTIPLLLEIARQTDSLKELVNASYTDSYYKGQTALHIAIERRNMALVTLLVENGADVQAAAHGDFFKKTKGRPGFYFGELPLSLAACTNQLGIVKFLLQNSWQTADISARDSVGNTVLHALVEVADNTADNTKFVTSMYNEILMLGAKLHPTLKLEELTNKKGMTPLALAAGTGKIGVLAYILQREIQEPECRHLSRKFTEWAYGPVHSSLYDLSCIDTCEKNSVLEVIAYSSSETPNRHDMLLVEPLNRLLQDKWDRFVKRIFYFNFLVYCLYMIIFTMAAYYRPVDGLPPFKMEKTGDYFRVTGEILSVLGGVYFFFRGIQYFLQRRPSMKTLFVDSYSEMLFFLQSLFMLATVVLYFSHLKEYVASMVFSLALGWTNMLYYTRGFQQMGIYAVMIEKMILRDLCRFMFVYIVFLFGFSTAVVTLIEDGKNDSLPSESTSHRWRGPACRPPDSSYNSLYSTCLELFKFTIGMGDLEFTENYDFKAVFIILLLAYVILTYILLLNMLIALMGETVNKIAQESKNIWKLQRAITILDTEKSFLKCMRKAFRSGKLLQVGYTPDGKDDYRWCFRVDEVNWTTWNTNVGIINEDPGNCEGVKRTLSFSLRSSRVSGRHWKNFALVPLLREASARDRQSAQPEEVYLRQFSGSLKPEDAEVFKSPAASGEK

Compound | Ki [1] | IC50 [2] | inhibition at 1 µM [2, 3] | inhibition at 5 µM [2, 4] | h % I (5 μM) [2, 4]
Cc1cn(-c2ccc(NC(=O)CCc3ccc(C(F)(F)F)cc3)cc2C(F)(F)F)cn1 [Cpd 204, N-[4-(4-Methyl-imidazol-1-yl)-3-trifluoromethyl-phenyl]-3-(4-trifluoromethyl-phenyl)-propionamide] | 31.9 nM | 37 nM | 100% | – | –
Cc1cn(-c2ccc(NC(=O)/C=C/c3ccc(S(=O)(=O)C(F)(F)F)cc3)cc2C(F)(F)F)cn1 [Cpd 205, trans-N-[4-(4-Methyl-imidazol-1-yl)-3-trifluoromethyl-phenyl]-3-(4-trifluoromethanesulfonyl-phenyl)-acrylamide] | 44.4 nM | 38 nM | 100% | – | –
O=C(CCc1ccc(C(F)(F)F)cc1)Nc1ccc(-c2cccc(O)c2)c(C(F)(F)F)c1 [Cpd 206] | 64.6 nM | 39.4 nM | – | 100% | –
O=C(CCc1ccc(C(F)(F)F)cc1)Nc1ccc(-n2ccnc2)c(C(F)(F)F)c1 [Cpd 207] | 47.8 nM | 40.2 nM | 95% | 100% | –
Cc1cn(-c2ccc(NC(=O)/C=C/c3ccc(SC(F)(F)F)cc3)cc2C(F)(F)F)cn1 [Cpd 208] | 88.7 nM | 41 nM | 100% | – | –
O=C(CCc1ccc(C(F)(F)F)cc1)Nc1cnc(-c2cccc(O)c2)c(C(F)(F)F)c1 [Cpd 210, N-[6-(3-Hydroxy-phenyl)-5-trifluoromethyl-pyridin-3-yl]-3-(4-trifluoromethyl-phenyl)-propionamide] | 54.5 nM | 57 nM | – | 100% | –
CC(C)(C)c1ccc(CCC(=O)Nc2ccc(-n3cnc(Cl)c3Cl)cc2)cc1 [Cpd 211] | 22.2 nM | 60 nM | – | 99% | –
CC(C)(C)c1ccc(CCC(=O)Nc2ccc(-n3cnc(Cl)c3Cl)c(C(F)(F)F)c2)cc1 [Cpd 212, 3-(4-tert-Butyl-phenyl)-N-[4-(4,5-dichloro-imidazol-1-yl)-3-trifluoromethyl-phenyl]-propionamide] | 5.9 nM | 62.7 nM | 101% | 100% | –
Cc1cc(NC(=O)CCc2ccc(C(C)(C)C)cc2)cnc1-n1ccnc1 [Cpd 214] | 536 nM | 73.2 nM | – | 91% | –
Cc1cc(NC(=O)CCc2ccc(C(C)(C)C)cc2)cnc1-n1cnc(Cl)c1Cl [Cpd 215] | 7.4 nM | 74.3 nM | – | 100% | –
CC(=O)Nc1cccc(-c2ncc(NC(=O)CCc3ccc(C(C)(C)C)cc3)cc2C)c1 [Cpd 216] | 70.4 nM | 76.2 nM | – | 99% | –
O=C(/C=C/c1ccc(S(=O)(=O)C(F)(F)F)cc1)Nc1ccc(-n2cnc(Cl)c2Cl)c(C(F)(F)F)c1 [Cpd 217] | 47.7 nM | 87 nM | 101% | – | –
O=C(CCc1ccc(C(F)(F)F)cc1)Nc1ccc(-n2cnc(Cl)c2Cl)c(C(F)(F)F)c1 [Cpd 218] | 19.9 nM | 97.2 nM | – | 101% | –
O=C(CCc1ccc(C(F)(F)F)cc1)Nc1ccc(-c2ccncc2)c(C(F)(F)F)c1 [Cpd 220] | 99.8 nM | 121 nM | – | 100% | –
O=C(CCc1ccc(C(F)(F)F)cc1)Nc1cnc(-c2ccc(O)cc2)c(C(F)(F)F)c1 [Cpd 221] | 57.8 nM | 127 nM | – | 100% | –
O=C(CCc1ccc(C(F)(F)F)cc1)Nc1ccc(-c2ccc(CO)cc2)c(C(F)(F)F)c1 [Cpd 223] | 82.6 nM | 142 nM | – | – | 100%
CC(C)(C)c1ccc(CCC(=O)Nc2cnc(-n3cnc(Cl)c3Cl)c(C(F)(F)F)c2)cc1 [Cpd 224] | 18.4 nM | 147 nM | – | 101% | –
O=C(CCc1ccc(C(F)(F)F)cc1)Nc1cnc(-c2ccc(CO)cc2)c(C(F)(F)F)c1 [Cpd 225] | 162 nM | 152 nM | – | 100% | –
Cc1cn(-c2ncc(NC(=O)CCc3ccc(C(F)(F)F)cc3)cc2C)cn1 [Cpd 226] | 761 nM | 164 nM | 83% | – | –

Compound | Ki [1] | IC50 [2] | inhibition at 1 µM [2, 3] | inhibition at 5 µM [2, 4] | h % I (5 μM) [2, 4]
O=C(CCc1ccc(C(F)(F)F)cc1)Nc1ccc(-n2cnc(Cl)c2)c(C(F)(F)F)c1 [Cpd 227, N-[4-(4-Chloro-imidazol-1-yl)-3-trifluoromethyl-phenyl]-3-(4-trifluoromethyl-phenyl)-propionamide] | 90.8 nM | 168 nM | 100% | – | –
O=C(/C=C/c1ccc(SC(F)(F)F)cc1)Nc1ccc(-n2cnc(Cl)c2Cl)c(C(F)(F)F)c1 [Cpd 228] | 41.6 nM | 171 nM | 92% | – | –
O=C(CCc1ccc(C(F)(F)F)cc1)Nc1ccc(-c2ccc(O)cc2)c(C(F)(F)F)c1 [Cpd 229] | 99.2 nM | 195 nM | – | 100% | –
O=C(CCc1ccc(Cl)cc1)Nc1ccc(-c2ccncc2)c(C(F)(F)F)c1 [Cpd 230] | 1020 nM | 202 nM | – | 101% | –
O=C(CCc1ccc(Cl)cc1)Nc1ccc(-n2cnc(Cl)c2Cl)c(C(F)(F)F)c1 [Cpd 231] | 26.2 nM | 240 nM | 90% | – | –
Cc1cc(NC(=O)CCc2ccc(N(C)C3CCCCC3)cc2)cnc1-n1cnc(Cl)c1Cl [Cpd 232] | 80 nM | 249 nM | 99% | – | –
Cc1cn(-c2ccc(NC(=O)CCc3ccc(C(F)(F)F)cn3)cc2C(F)(F)F)cn1 [Cpd 233, N-[4-(4-Methyl-imidazol-1-yl)-3-trifluoromethyl-phenyl]-3-(5-trifluoromethyl-pyridin-2-yl)-propionamide] | 1000 nM | 259 nM | 98% | – | –
Cc1cc(NC(=O)CCc2ccc(Cl)cc2)cnc1-n1cnc(Cl)c1Cl [Cpd 234] | 85.5 nM | 290 nM | 88% | – | –
O=C(CCc1ccc(C(F)(F)F)cc1)Nc1cnc(-n2ccnc2)c(C(F)(F)F)c1 [Cpd 240] | 3850 nM | 379 nM | – | 101% | –
Cc1cc(NC(=O)/C=C/c2ccc(N(C)C3CCCCC3)cc2)cnc1-n1cnc(Cl)c1Cl [Cpd 241, trans-3-[4-(Cyclohexyl-methyl-amino)-phenyl]-N-[6-(4,5-dichloro-imidazol-1-yl)-5-methyl-pyridin-3-yl]-acrylamide] | 79.8 nM | 396 nM | 92% | – | –
O=C(CCc1ccc(Cl)cc1)Nc1ccc(-n2ccnc2)c(C(F)(F)F)c1 [Cpd 242] | 2110 nM | 400 nM | 76% | – | –
O=C(CCc1ccc(C(F)(F)F)cc1)Nc1ccc(C2=NOS(=O)N2)c(C(F)(F)F)c1 (stereo not drawn) [Cpd 245, N-[4-(2-Oxo-2,3-dihydro-2λ^4-[1,2,3,5]oxathiadiazol-4-yl)-3-trifluoromethyl-phenyl]-3-(4-trifluoromethyl-phenyl)-propionamide] | 974 nM | 491 nM | 70% | 9% | –
Cc1cc(NC(=O)CCc2ccc(C(C)(C)C)cc2)cnc1-c1cccc(C#N)c1 [Cpd 246] | 371 nM | 543 nM | – | 105% | –
O=C(CCc1ccc(C(F)(F)F)cc1)Nc1ccc(-c2ccc(CO)cc2)c(C(F)(F)F)c1 [Cpd 250] | 199 nM | 718 nM | – | 100% | –
O=C(CCc1ccc(C(F)(F)F)cc1)Nc1cnc(-n2cnc(Cl)c2Cl)c(C(F)(F)F)c1 [Cpd 251] | 134 nM | 724 nM | – | 101% | –
O=C(CCc1ccccc1)Nc1ccc(-c2ccncc2)c(C(F)(F)F)c1 [Cpd 252] | 5350 nM | 896 nM | – | 100% | –
O=C(CCc1ccc(C(F)(F)F)cc1)Nc1ccc(-n2cnc3ccccc32)c(C(F)(F)F)c1 [Cpd 253] | 44.3 nM | 952 nM | 52% | – | –
O=C(CCc1ccc(C(F)(F)F)cc1)Nc1ccc(-c2ccnc(F)c2)c(C(F)(F)F)c1 [Cpd 254] | 293 nM | 995 nM | – | 98% | –
